Measured values from PubChem BioAssay AID1159558 (GlaxoSmithKline (GSK), 2015).
Calls of active or inactive are those of the source.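 The calls were made as follows: active = IC50 against T. cruzi CYP51 below a set limit; inactive = the rest.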

The molecules below were run against Sterol 14-alpha demethylase (Trypanosoma cruzi (strain CL Brener)) (UniProt Q7Z1V1) (assay: TcCYP51 inhibitors, dose response, mechanism study for T. cruzi antiparasitic project, biochemical, recombinant enzyme (AID 1159558;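 also: enzyme in bacterial membranes with Anopheles gambiae CYP reductase and cytochrome b5 partners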)). Conditions: recombinant T. cruzi CYP51, BOMCC fluorescence.
Sterol 14-alpha demethylase (Trypanosoma cruzi (strain CL Brener)), sequence (Q7Z1V1 whole entry, looked up): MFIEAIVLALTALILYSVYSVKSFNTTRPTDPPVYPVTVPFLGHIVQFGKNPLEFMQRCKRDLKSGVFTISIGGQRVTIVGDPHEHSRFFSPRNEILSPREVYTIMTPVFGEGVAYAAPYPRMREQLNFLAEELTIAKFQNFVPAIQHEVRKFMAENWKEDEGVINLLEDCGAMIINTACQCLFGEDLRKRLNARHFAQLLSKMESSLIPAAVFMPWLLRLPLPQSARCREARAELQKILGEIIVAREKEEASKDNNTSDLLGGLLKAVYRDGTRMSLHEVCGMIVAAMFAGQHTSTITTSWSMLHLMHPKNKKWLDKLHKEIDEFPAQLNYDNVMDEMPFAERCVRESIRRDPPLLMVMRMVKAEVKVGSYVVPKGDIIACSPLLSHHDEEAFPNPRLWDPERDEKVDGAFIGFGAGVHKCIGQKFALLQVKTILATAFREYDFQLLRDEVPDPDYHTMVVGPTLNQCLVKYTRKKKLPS

Structure (SMILES) | IC50
Cn1cc(CN2CCN(c3ccc4c(c3)CCN(C(=O)[C@H]3C[C@@H]3c3ccccc3)CC4)CC2)cn1 | 16 µM
c1ccc(-c2nc(NC3CCCCC3)cc(C3CC3)n2)nc1 | > 100 µM (inactive)
CC(=O)Nc1ccc(CN2CCC(N3CC(c4ccccc4)(c4ccccc4)OCC3=O)CC2)cc1 | > 100 µM (inactive)
Nc1nccc(-c2csc(Nc3ccc(Cl)cc3)n2)n1 | 1.3 µM
O=C(Nc1ccccc1)Nc1nc(-c2ccccn2)cs1 | 32 µM
CC(C)c1nn(-c2nc(N)nc(-c3ccccn3)n2)c(N)c1C1CCCCC1 | 3.2 µM
COc1ccc2ncc(=O)n(CCN3CC[C@H](NCc4ncc(Cl)c5[nH]ncc45)[C@H](O)C3)c2n1 | > 100 µM (inactive)
O=C(Nc1n[nH]c(-c2ccccn2)n1)C1CC1c1ccccc1 (centres undefined) | > 100 µM (inactive)
Cc1cccnc1CN1CCN(CCCOc2ccc(-c3ccc(C(N)=O)cc3)cc2)CC1 | > 100 µM (inactive)
Cc1ccc2sc(NC(=O)Cn3cnc([N+](=O)[O-])n3)nc2c1 | > 100 µM (inactive)
O=C(NCC(c1cccs1)N1CCOCC1)c1ccc([N+](=O)[O-])o1 (centres undefined) | 10 µM
O=C(CN(Cc1ccccn1)Cc1ccccn1)NC1Cc2ccccc2C1 | 79 µM
c1cncc(CN(Cc2ccco2)Cc2cn[nH]c2-c2cccs2)c1 | 0.079 µM
Cn1ccnc1CN1CCc2[nH]cnc2C1c1ccccc1OCc1ccccc1 (centres undefined) | 7.9 µM
Cc1nnnn1-c1cccc(C(=O)N2CCC[C@@]3(C)c4ncncc4CCC23)c1 (some centres undefined) | 25 µM
Cc1cc2nc(N3CC[C@H]3C(N)=O)nc(Nc3cc(C4CC4)[nH]n3)c2s1 | > 100 µM (inactive)
OCC1CCCCN1c1cc(-c2ccccn2)nc(Nc2ccccc2)n1 (centres undefined) | 79 µM
O=c1oc2ccccc2n1C1CCN(Cc2ccccc2-c2cccnc2)CC1 | 0.1 µM
Cc1nc2c(-c3cccs3)c(C)nn2c(NCCO)c1C | > 100 µM (inactive)
CCc1ccc2nc(NC(=O)c3cc(N4CCOCC4)ccn3)sc2c1 | > 100 µM (inactive)
NC(=O)c1ncccc1Nc1nc(NC2CCC(O)CC2)ncc1Br (centres undefined) | > 100 µM (inactive)
COc1ccc2ncc(Cl)c(CCN3CC[C@H](NCc4cc5c(cn4)OCS5)[C@@H](O)C3)c2n1 | 7.9 µM
Clc1ccc(CN2CCN(C3=NCCN3)CC2)cc1Cl | > 100 µM (inactive)
Cc1cc(Nc2cc(C3CC3)[nH]n2)nc(N2CCCC2)n1 | > 100 µM (inactive)
O=C(O)[C@H]1C[C@@H]1c1ccc(-c2ccc(CN(CCc3ccccn3)C(=O)C3CCC3)cc2)cc1 | 20 µM
CC(C)(C)c1cc(NC2CC2)nc(-c2ccccn2)n1 | > 100 µM (inactive)

Structure (SMILES) | IC50
O=C(NCc1nnc2n1CCCCC2)c1csc(-c2ccccc2)n1 | > 100 µM (inactive)
CC(C)(C)Nc1nc(-c2ccccn2)nc2ccccc12 | > 100 µM (inactive)
CC(c1ccccn1)N(C)Cc1nc2ccccc2n1C(C)C (centres undefined) | 32 µM
O=C(CN(Cc1ccccn1)Cc1ccccn1)NCc1ccc(-c2csnn2)cc1 | 40 µM
C=CCn1nc([N+](=O)[O-])nc1Oc1ccc(Cl)cc1Cl | 20 µM
CN1CCCN(C(=O)c2ccc(N3CCCC3)cc2Cl)CC1 | > 100 µM (inactive)
c1ccc(Nc2nc(-c3ccccn3)cc(N3CCOCC3)n2)cc1 | > 100 µM (inactive)
CCCCc1cc(Nc2cc(C3CCC3)[nH]n2)nc(N2CCC2C(N)=O)n1 (centres undefined) | > 100 µM (inactive)
O=C1NCCn2ccc(Nc3nc(NC4CCC(O)CC4)ncc3Cl)c21 (centres undefined) | > 100 µM (inactive)
O=C(Nc1nc(-c2ccccn2)cs1)C1CCc2ccccc2C1 (centres undefined) | 25 µM
CC(C)Oc1cccc(N2CCC(C(=O)N3CCCN(C(C)C)CC3)CC2)c1 | > 100 µM (inactive)
Cc1nc2c(-c3n[nH]c(-c4ccccc4N)n3)cccn2c1C | 3.2 µM
Oc1c(-c2n[nH]c(Cc3ccc(Cl)cc3)n2)ncc2cccnc12 | 32 µM
COc1ccc2ncc(F)c(NC(=O)C3(O)CCC(NCc4ccc5c(c4)OCCO5)CC3)c2n1 (centres undefined) | 63 µM
O=C1CCCCCC1(Cc1cnc[nH]1)c1ccc(Cl)cc1Cl (centres undefined) | 0.1 µM
Cc1ccccc1OCC(=O)N1CCCN(c2cccnn2)CC1 | 0.079 µM
O=C(NCCc1ccn(-c2ccccc2)n1)C1CCCCC1 | 100 µM
Cn1nccc1-c1cc(OC(CN)c2ccccc2)cnc1-c1ccco1 (centres undefined) | 0.063 µM
COc1ccc2c(Cl)c(C(=O)N3CCC3)sc2c1Cl | > 100 µM (inactive)
CC1=NN(C(=O)CCn2cnc([N+](=O)[O-])n2)C(O)(C(F)(F)F)C1 (centres undefined) | > 100 µM (inactive)
N#Cc1ccc(Br)cc1[N+](=O)[O-] | 50 µM
Cc1c(Nc2cc(C3CC3)[nH]n2)ccc(C#N)c1Cl | 20 µM
Cc1cc(C)n(-c2nc(NC(C)(C)C)nc(N3CCOCC3)n2)n1 | > 100 µM (inactive)
Nc1nc(-c2ccccn2)nc(N)c1Cc1c(F)cccc1Cl | > 100 µM (inactive)
Cc1cc(C)n(-c2nc(NC(C)C)nc(NC(C)(C)C)n2)n1 | > 100 µM (inactive)

Now from value to molecule:

IC50 | Structure (SMILES)
63 µM | CC(=O)Nc1ccc(-c2cnc(N)c(-c3nc4ccc(F)cc4[nH]3)c2)cc1
16 µM | CCOc1ccc(CN(C)Cc2nc(N)nc(Nc3ccc(C)cc3)n2)cc1
0.02 µM | O=C(Nc1cccc(Cl)c1)N1CCCCC1c1cccnc1 (centres undefined)
20 µM | CC(C)(C)CC(=O)NCCc1csc(-c2ccc(F)cc2)n1
> 100 µM (inactive) | N#Cc1c(Oc2cccc(Cl)c2)cccc1[N+](=O)[O-]
> 100 µM (inactive) | CCOc1ccc2nc(NC(=O)c3ccc([N+](=O)[O-])s3)sc2c1
10 µM | COc1ccc(OC)c(NC(=O)c2ccc([N+](=O)[O-])o2)c1
2.5 µM | CC1CCCN(S(=O)(=O)c2ccc(C(=O)Nc3nc(-c4ccccn4)cs3)cc2)C1 (centres undefined)
> 100 µM (inactive) | CCOc1ccc(NC(=O)C=Cc2ccc(CC)o2)cc1
> 100 µM (inactive) | Cc1cc(-c2cccc3ccccc23)nc2nc(N)nc(N)c12
20 µM | N#Cc1cc(N2CCCC2=O)ccc1Sc1ccccc1CO
16 µM | O=c1cc(NCCCNC2CCOc3c(I)cc(Cl)cc32)[nH]c2ccccc12 (centres undefined)
0.063 µM | COc1cccc(CCNC(=O)C(c2cn[nH]c2)N2CCN(c3ccc(Cl)cc3)CC2)c1 (centres undefined)
> 100 µM (inactive) | COc1ccc(NS(=O)(=O)c2cc(NC(=O)Cc3ccc(C)cc3)ccc2N2CCOCC2)cc1
6.3 µM | COc1cccc(NS(=O)(=O)c2ccc3[nH]cc(C(=O)NCCC(C)C)c(=O)c3c2)c1
16 µM | O=C(NCCCn1cnc2ccccc21)c1ccc(NC(=O)c2ccco2)cc1
100 µM | Cc1ccccc1CNC(=O)CN(Cc1ccccn1)Cc1ccccn1
> 100 µM (inactive) | O=C(Nc1nccs1)c1ccccc1Cn1cc([N+](=O)[O-])cn1
50 µM | N#Cc1cccc(Cc2cc(Nc3cc(C4CC4)[nH]n3)nc(N3CC[C@H]3C(N)=O)n2)c1
> 100 µM (inactive) | Cc1occc1C(=O)Nc1ccccc1C(=O)Nc1nccs1
40 µM | CN(Cc1nc2c(C(=O)N3CCN(Cc4ccccc4)CC3)cccc2[nH]1)C1CCCc2cccnc21 (centres undefined)
0.2 µM | O=C(NC1C(=O)N(c2ccccc2)C1c1cccnc1)c1ccc(Cl)s1 (centres undefined)
> 100 µM (inactive) | CCN(C)Cc1ccc(N2CCC(NS(=O)(=O)c3ccc4c(c3)CCO4)CC2)nc1
0.032 µM | CNc1cc(Cn2c(C(=O)c3cc(C)cc(Cl)c3)c(C(C)C)c(=O)[nH]c2=O)ccn1
> 100 µM (inactive) | COc1ccc(C(=O)Nc2cc(C(F)(F)F)ccc2N2CCOCC2)c(OC)c1
0.079 µM | N#Cc1ccc(S(=O)(=O)N2CCN(Cc3cccc(-c4ccncc4)c3)CC2)cc1
2.5 µM | O=C(CN1CCN(S(=O)(=O)c2cccc([N+](=O)[O-])c2)CC1)Nc1ccc(Oc2ccccc2)cc1

IC50 | Structure (SMILES)
40 µM | COc1ccc(NS(=O)(=O)c2cc(-c3cc(C)[nH]n3)ccc2C)cc1OC
79 µM | O=C(NCc1nnc2n1CCCCC2)c1ccc(-c2ccc(F)cc2)o1
0.04 µM | COc1ccc(-c2nc3ccncc3c(=O)n2CCOc2ccccc2)cc1
> 100 µM (inactive) | NC(=O)c1ccccc1Nc1nc(NC2CCCCC2)nc2[nH]ccc12
0.16 µM | O=C(Nc1cccc(F)c1)N1CCC(Oc2cccc(-c3cccnc3)c2)CC1
0.079 µM | O=C(NCc1ccncc1)c1ccccc1N1CCCN(C(=O)Cc2ccc(F)c(F)c2)CC1
7.9 µM | N#Cc1cccc(Nc2nccc(N3CCC(NS(=O)(=O)c4cccc(C#N)c4)CC3)n2)c1
0.079 µM | CCN(Cc1ccncc1)Cc1ccc(NC(=O)c2cc(-c3ccc(F)cc3)n[nH]2)cc1
13 µM | CS(=O)(=O)c1cccc(CNC(=O)c2cncc(N3CCN(c4ccc(F)cc4)CC3)c2)c1
6.3 µM | O=C(Nc1nc(-c2ccccn2)cs1)c1ccc(S(=O)(=O)N2CCCCC2)cc1
5 µM | O=C(Nc1nc2ccccc2[nH]1)c1ccc2nc[nH]c2c1
> 100 µM (inactive) | COc1cccc(CN(C)Cc2nc(N)c3c(C)c(C)sc3n2)c1
> 100 µM (inactive) | COc1ccc(OC)c2c(=O)c(Cc3ccccc3)c(C)[nH]c12
2.5 µM | O=C(Nc1cccc(S(=O)(=O)Nc2ccc(Br)cc2)c1)c1ccc([N+](=O)[O-])s1
25 µM | COc1ccc(-c2cnc(C)o2)cc1S(=O)(=O)Nc1ccc(C)cc1C
3.2 µM | CS(=O)(=O)c1cccc(-c2cnc(N)c3c(-c4ccc(CO)cc4)csc23)c1
32 µM | CN(C)S(=O)(=O)c1ccc(Cl)c(C(=O)Nc2nc(-c3ccccn3)cs2)c1
0.063 µM | O=C(NCCc1cccnc1)c1ccc(-c2ccccc2F)o1
40 µM | NC(=O)c1ccc(-c2cccc(OCCN3CCN(C4CCCCC4)CC3)c2)cc1
> 100 µM (inactive) | Cn1nc([N+](=O)[O-])nc1Oc1ccc(C(=O)c2ccccc2)cc1
> 100 µM (inactive) | O=C(Cn1cnc2cc([N+](=O)[O-])ccc2c1=O)NCCc1ccc(Cl)cc1Cl
> 100 µM (inactive) | Oc1c(-c2n[nH]c(Cc3ccc(F)cc3)n2)ncc2cccnc12
> 100 µM (inactive) | CC1CCCCN1C(=O)NCCc1coc(-c2ccc(F)cc2)n1 (centres undefined)
0.063 µM | CC(Cn1ccnc1)NC(=O)COc1ccc(Cl)c(Cl)c1 (centres undefined)
13 µM | O=S(=O)(c1cccc(CSc2nnc(-c3ccc4c(c3)OCO4)o2)c1)N1CCOCC1
32 µM | O=C(Cc1ccccc1)Nc1[nH]nc2sc(C(=O)NC3CCCC3)cc12
